Experimental findings from ChEMBL document CHEMBL1201862, “PubChem BioAssay data set” (2004) are described below.

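A five-concentration, 48-hour dose response in 96-well plates underlies each endpoint, interpolated linearly between surrounding concentrations. The concentration for 50% growth inhibition is given as GI50.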 Activity calls are given as the source filed them. Cut-off read from the data, not from the text of the source: active = GI50 up to about 1.1 µM and inactive = higher.

Among the test systems are NCI-H522; SF-295; RPMI-8226; HCC 2998; UACC-257; K562; NCI-H460; SW-620; SF-539; IGROV-1; MOLT-4; UACC-62; 786-0; SNB-75; OVCAR-5.
What all share (test): growth of human tumour cells (NCI), 48 h

As for `CC1(C)CC(C)(C)CC(O)(C2(O)CC(C)(C)CC(C)(C)C2)C1`, the GI50 in the test with NCI-H522, in the test on SF-295, with RPMI-8226, in the test on HCC 2998, in the test with UACC-257 and in the test with K562 was > 100 µM (inactive) throughout. The GI50 in the test on NCI-H460, in the test on SW-620, in the test on SF-539, in the test on IGROV-1, in the test with MOLT-4 and in the test with UACC-62 was > 100 µM (inactive) each time. In the test on 786-0, the GI50 was > 100 µM (inactive).

As to `c1ccc(CN(Cc2ccccn2)Cn2cccn2)nc1`, the GI50 is > 100 µM (inactive) in the test with NCI-H522; 62.7 µM (inactive) with SF-295; 28.9 µM (inactive) in the test on RPMI-8226; 39 µM (inactive) in the test with UACC-257; 36.6 µM (inactive) in the test on K562; 41.2 µM (inactive) in the test with NCI-H460. For the same molecule, the GI50 with SW-620 is 48 µM (inactive); in the test with SF-539, > 100 µM (inactive); in the test on MOLT-4, 29.2 µM (inactive); in the test with UACC-62, 20.3 µM (inactive); in the test on SNB-75 it was > 100 µM (inactive); in the test on 786-0, 91.2 µM (inactive).

On to `CCOC(=O)C(C)(C)Oc1ccc2c(=O)cc(-c3ccc(Cl)cc3)oc2c1`, for which the GI50 in the test with SF-295, in the test on RPMI-8226, in the test with HCC 2998, in the test on UACC-257, in the test on K562 and in the test on NCI-H460 was > 100 µM (inactive) in each case. For the same molecule, the GI50 is > 100 µM (inactive) with SW-620; > 100 µM (inactive) in the test on SF-539; > 100 µM (inactive) in the test on IGROV-1; > 100 µM (inactive) in the test with MOLT-4; > 100 µM (inactive) with UACC-62; 38.4 µM (inactive) with SNB-75. For the same molecule, the GI50 in the test with 786-0 was > 100 µM (inactive).

`NCC(=O)OCN1C(=O)C2C3C=CC(C2C1=O)C1C2C(=O)N(COC(=O)CN)C(=O)C2C31` (stereo not given): the GI50 in the test with SF-295 was 53.7 µM (inactive); with RPMI-8226 it was 28 µM (inactive); in the test on UACC-257, 31.8 µM (inactive); with K562, 28.6 µM (inactive); in the test on NCI-H460, 17.3 µM (inactive); in the test on SW-620, 24.4 µM (inactive). The GI50 in the test on SF-539 was 18.9 µM (inactive); with IGROV-1, 40.2 µM (inactive); in the test with MOLT-4 it was 16.9 µM (inactive); with UACC-62, 24.2 µM (inactive); in the test on SNB-75, 32.3 µM (inactive); with 786-0, 19.6 µM (inactive).

In the case of `CC(=O)[O-].Cc1ncc(CO)c(/C=N/NC(N)=S)c1[O-].[Zn+2]`, the GI50 with SF-295, with RPMI-8226, in the test on HCC 2998, with UACC-257, with K562 and in the test on NCI-H460 was > 100 µM (inactive) each time. For the same molecule, the GI50 in the test with SW-620, with SF-539, in the test with OVCAR-5, with IGROV-1, in the test with MOLT-4 and in the test with UACC-62 was > 100 µM (inactive) each time. The GI50 in the test with SNB-75 and in the test with 786-0 was > 100 µM (inactive) throughout.

As to `Cc1nc2c(n1Cc1ccc(F)cc1)C(=O)c1ccccc1C2=O`, the GI50 in the test with NCI-H522 is 10.8 µM (inactive); with SF-295, 44.2 µM (inactive); in the test with HCC 2998, 87.3 µM (inactive); in the test on UACC-257, 26.6 µM (inactive); in the test with K562 it was 5.61 µM (inactive); in the test on NCI-H460 it was 4.07 µM (inactive). Moreover, the GI50 was 41.3 µM (inactive) in the test with SW-620; 6.98 µM (inactive) in the test with SF-539; 25.8 µM (inactive) with IGROV-1; 5.4 µM (inactive) in the test on MOLT-4; 5.25 µM (inactive) in the test on UACC-62; 36.6 µM (inactive) in the test on SNB-75. The GI50 with 786-0 was 13.1 µM (inactive).

Take `COc1ccc(NC(=O)C(C)Oc2ccc(OCC3CCCCC3)cc2)cc1` (stereo not given): the GI50 in the test with NCI-H522 is 25.6 µM (inactive); in the test on HCC 2998 it was 23.6 µM (inactive); in the test with UACC-257 it was 36.6 µM (inactive); in the test on K562, 57.9 µM (inactive); in the test on NCI-H460 it was 45.8 µM (inactive); in the test on SF-539 it was > 100 µM (inactive). The GI50 with IGROV-1 is > 100 µM (inactive); with MOLT-4 it was 54.5 µM (inactive); in the test with UACC-62, > 100 µM (inactive); with SNB-75 it was 54 µM (inactive); in the test on 786-0, > 100 µM (inactive).

With `Cc1cccc2c1C/C(=C1\CCc3c(C)cccc31)C2=O`, the GI50 in the test on SF-295, in the test on HCC 2998, with UACC-257, in the test with K562, with NCI-H460 and in the test with SW-620 was > 100 µM (inactive) in each case. The GI50 is > 100 µM (inactive) with OVCAR-5; > 100 µM (inactive) with IGROV-1; > 100 µM (inactive) with MOLT-4; > 100 µM (inactive) with UACC-62; 80.9 µM (inactive) in the test on SNB-75; 90.4 µM (inactive) with 786-0.

`CC1=C(c2cc(C(=O)Nc3cccc(C(F)(F)F)c3)ncn2)Sc2ccccc2N1`: the GI50 in the test with NCI-H522, with SF-295, in the test on RPMI-8226, in the test with UACC-257, with K562 and with NCI-H460 was > 100 µM (inactive) each time. Also, the GI50 is > 100 µM (inactive) in the test on SW-620; > 100 µM (inactive) with SF-539; > 100 µM (inactive) in the test with IGROV-1; > 100 µM (inactive) in the test with MOLT-4; > 100 µM (inactive) in the test with UACC-62; 58.9 µM (inactive) with SNB-75. The GI50 in the test on 786-0 is > 100 µM (inactive).

Consider `C=CCNC(=O)N(CCCCC(NC(C)=O)C(=O)NCc1ccccc1)Cc1ccccc1` (stereo not given), for which the GI50 in the test on NCI-H522, in the test with SF-295, with RPMI-8226, with UACC-257, with K562 and in the test on NCI-H460 was > 100 µM (inactive) throughout. Besides, the GI50 with SW-620, in the test with SF-539, in the test on OVCAR-5, in the test with IGROV-1, in the test with MOLT-4 and with UACC-62 was > 100 µM (inactive) throughout. Also, the GI50 in the test with SNB-75 and with 786-0 was > 100 µM (inactive) throughout.

With `COc1ccc(OC)c2[nH]c(Sc3c([N+](=O)[O-])ncn3C)nc12`, the GI50 in the test with SF-295 was 41.8 µM (inactive); with HCC 2998, 20.3 µM (inactive); in the test on UACC-257, 15.3 µM (inactive); in the test on NCI-H460, 38.1 µM (inactive); with SW-620, 24.5 µM (inactive); with SF-539, 18 µM (inactive). Besides, the GI50 is 94.6 µM (inactive) in the test with OVCAR-5; 24.2 µM (inactive) in the test on IGROV-1; 18.5 µM (inactive) in the test on UACC-62; 30.8 µM (inactive) in the test with SNB-75; 29.3 µM (inactive) in the test on 786-0.

For `CC1CC[C@]2(C(=O)O)CCC3(C)C(=CC(=O)C4[C@@]5(C)CCC(=O)C(C)(C)C5CC[C@]43C)[C@@H]2[C@H]1C` (stereo not given in full), the GI50 with NCI-H522 is 18.4 µM (inactive); with SF-295 it was 31 µM (inactive); in the test on UACC-257 it was 23.2 µM (inactive); in the test with K562 it was 23.6 µM (inactive); in the test with NCI-H460, 26.2 µM (inactive); in the test with SW-620, 39.9 µM (inactive). Also, the GI50 is 18.9 µM (inactive) with SF-539; 26.9 µM (inactive) in the test with IGROV-1; 11.5 µM (inactive) with MOLT-4; 13.2 µM (inactive) with UACC-62; 35.5 µM (inactive) in the test on SNB-75; 31.8 µM (inactive) with 786-0.

Turning to `COc1ccc(OC(C(=O)O)c2ccccc2)c2c1CCCC2=O` (stereo not given), the GI50 with NCI-H522, with SF-295, in the test with RPMI-8226, in the test on HCC 2998, in the test on UACC-257 and in the test on K562 was > 100 µM (inactive) each time. Besides, the GI50 in the test on NCI-H460, in the test with SW-620, with SF-539, in the test with OVCAR-5, with IGROV-1 and in the test with MOLT-4 was > 100 µM (inactive) each time. Moreover, the GI50 in the test on UACC-62 and with 786-0 was > 100 µM (inactive) throughout.

As to `CCCCCCCOc1ccc(/C=C\c2cc[n+](CCCCCCCC[n+]3ccc(/C=C\c4ccc(OCCCCCCC)cc4)cc3)cc2)cc1`, the GI50 is 2.64 µM (inactive) in the test with NCI-H522; 13.3 µM (inactive) in the test on SF-295; 7.29 µM (inactive) with RPMI-8226; 86.1 µM (inactive) with UACC-257; 5.51 µM (inactive) with NCI-H460; 65.5 µM (inactive) in the test on SF-539. The GI50 with OVCAR-5 is 17.7 µM (inactive); with IGROV-1, 11.3 µM (inactive); with MOLT-4 it was 15.2 µM (inactive); with UACC-62, 35.3 µM (inactive); in the test with SNB-75, > 100 µM (inactive); in the test with 786-0 it was 14.7 µM (inactive).

Turning to `Cc1ccc(S(=O)(=O)N/N=C\c2c3ccccc3[n+]([O-])c3ccccc23)cc1`, the GI50 in the test on NCI-H522 was 2.02 µM (inactive); in the test on SF-295 it was 6.76 µM (inactive); with RPMI-8226 it was 0.415 µM (active); with HCC 2998, 8.57 µM (inactive); in the test on UACC-257, 9.95 µM (inactive); in the test with K562 it was 0.36 µM (active). The GI50 in the test on NCI-H460 was 2.44 µM (inactive); in the test on SW-620 it was 2.18 µM (inactive); in the test on OVCAR-5, 14.7 µM (inactive); in the test with IGROV-1 it was 9.25 µM (inactive); in the test on MOLT-4, 0.612 µM (active); with UACC-62, 5.55 µM (inactive). For the same molecule, the GI50 was 3.44 µM (inactive) in the test with SNB-75 and 2.01 µM (inactive) in the test with 786-0.
